In ChEMBL document CHEMBL1129222, “Anti-AIDS agents. 291. Anti-HIV activity of modified podophyllotoxin derivatives” (Bioorg Med Chem Lett, 1997):

Experiments:
H9 [1] = assay: The compound was evaluated for cytotoxicity against H9 cell line; Toxic; format: toxicity, cell-based, Homo sapiens
H9 [2] = assay: The compound was evaluated for anti-HIV activity using T cell line (H9); No suppression; format: functional, cell-based, Homo sapiens
H9 [3] = assay: Cytotoxicity against H9 cell line; format: functional, cell-based; conditions: Homo sapiens
H9 [4] = assay: Evaluation for anti-HIV activity using T cell line (H9).; format: functional, cell-based; conditions: Homo sapiens
[5] = Therapeutic index (IC50/EC50); format: cell-based; conditions: human, H9 cells; read-out: Therapeutic index
H9 [6] = assay: The compound was evaluated for anti-HIV activity using T cell line (H9); conditions: Homo sapiens
H9 [7] = assay: as above; conditions: Homo sapiens; remark: listed apart in the source

Structure (SMILES) | EC50 (H9 [2]) | EC50 (H9 [4]) [µM] | EC50 (H9 [6]) [µM] | EC50 (H9 [7]) [µM] | IC50 (H9 [1]) | IC50 (H9 [3]) [µM] | selectivity ratio [5]
COc1cc([C@@H]2c3cc4c(cc3[C@H](O)[C@H]3COC(=O)[C@H]23)OCO4)cc(OC)c1OC [PODOFILOX] | – | – | – | – | Toxic | – | –
COc1cc([C@@H]2c3cc4c(cc3[C@@H](Nc3ccc([N+](=O)[O-])cc3)[C@H]3COC(=O)[C@H]23)OCO4)cc(OC)c1O | – | < 0.00128 | – | – | – | 0.07 | 55.8
COc1cc([C@@H]2c3cc4c(cc3[C@@H](O)[C@H]3COC(=O)[C@H]23)OCO4)cc(OC)c1O [4'-DEMETHYLEPIPODOPHYLLOTOXIN] | Not Active | – | – | – | – | 0.07 | –
Cc1cn([C@H]2C[C@H](N=[N+]=[N-])[C@@H](CO)O2)c(=O)[nH]c1=O [ZIDOVUDINE] | – | 0.009 | – | – | – | 500 | –
COc1cc([C@@H]2c3cc4c(cc3[C@@H](Nc3ccc(F)cc3)[C@H]3COC[C@H]23)OCO4)cc(OC)c1O | – | 0.12 | – | – | – | 1.5 | 12.5
CCOC(=O)c1ccc(N[C@@H]2c3cc(OC)c(OC)cc3[C@@H](c3cc(OC)c(O)c(OC)c3)[C@H]3C(=O)OC[C@@H]32)cc1 | – | < 0.001 | – | – | – | 0.12 | > 120
COc1cc([C@@H]2c3cc4c(cc3[C@@H](Nc3ccc(F)cc3)[C@H]3COC(O)[C@H]23)OCO4)cc(OC)c1O (some centres not stated) | – | 0.45 | – | – | – | 1.8 | 4
COc1cc([C@@H]2c3cc(O)c(O)cc3[C@@H](O)[C@H]3COC(=O)[C@H]23)cc(OC)c1O | Not Active | – | – | – | – | 45 | –
COc1cc2c(cc1OC)[C@@H](Nc1ccc(F)cc1)[C@H]1COC(=O)[C@@H]1[C@@H]2c1cc(OC)c(O)c(OC)c1 | – | < 0.001 | – | – | – | 0.166 | > 166
COc1cc([C@@H]2c3cc4c(cc3[C@@H](Nc3ccc(F)cc3)[C@H]3COC(=O)[C@H]23)OCO4)cc(OC)c1O | – | 0.1 | – | – | – | 1 | 10
COc1cc([C@@H]2c3cc4c(cc3[C@@H](Nc3ccc(F)cc3)[C@H]3COC(=O)[C@H]23)OCO4)cc(OC)c1OC | – | 0.45 | – | – | – | 1.5 | 3.3
COc1cc2c(cc1OC)[C@@H](Nc1ccc(C#N)cc1)[C@H]1COC(=O)[C@@H]1[C@@H]2c1cc(OC)c(O)c(OC)c1 | – | < 0.001 | – | – | – | 0.141 | > 141
COc1cc([C@@H]2c3cc4c(cc3C(=O)[C@H]3COC(=O)[C@H]23)OCO4)cc(OC)c1O | – | 0.8 | – | – | – | 1.7 | 2.1

Second part, led by results:

EC50 (H9 [2]) | EC50 (H9 [4]) [µM] | EC50 (H9 [6]) [µM] | EC50 (H9 [7]) [µM] | Structure (SMILES) | IC50 (H9 [1]) | IC50 (H9 [3]) [µM] | selectivity ratio [5]
Not Active | – | – | – | CCS[C@@H]1c2cc3c(cc2[C@@H](c2cc(OC)c(O)c(OC)c2)[C@H]2C(=O)OC[C@@H]21)OCO3 | – | 1.9 | –
– | 2.2 | – | – | COc1cc2c(cc1OC)[C@@H](Nc1ccc(F)cc1)[C@H]1COC(=O)[C@@H]1[C@@H]2c1cc(OC)c(OC)c(OC)c1 | – | 9.7 | 4.4
Not Active | – | – | – | COc1cc([C@@H]2c3cc(O)c(O)cc3[C@H](O)[C@H]3COC(=O)[C@H]23)cc(OC)c1O | – | 1.85 | –
– | 0.45 | – | – | COc1cc([C@@H]2c3cc4c(cc3[C@@H](Oc3ccc(F)cc3)[C@H]3COC(=O)[C@H]23)OCO4)cc(OC)c1O | – | 0.8 | 1.8
– | 0.8 | – | – | COc1cc([C@@H]2c3cc4c(cc3[C@@H](Sc3ccc(O)cc3)[C@H]3COC(=O)[C@H]23)OCO4)cc(OC)c1O | – | 1.7 | 2.1
– | 7 | – | – | COc1cc([C@@H]2c3cc(O)c(O)cc3[C@@H](Nc3ccc(F)cc3)[C@H]3COC(=O)[C@H]23)cc(OC)c1O | – | 29 | 4.1
– | 1.7 | – | – | COc1cc([C@@H]2c3cc4c(cc3[C@@H](O)[C@H]3COC(=O)[C@H]23)OCO4)cc(N)c1N | – | 6.6 | 3.9
– | – | < 0.001 | – | COc1cc2c(cc1OC)[C@@H](Nc1ccc([N+](=O)[O-])cc1)[C@H]1COC(=O)[C@@H]1[C@@H]2c1cc(OC)c(O)c(OC)c1 | – | 0.158 | > 158
No supperssion | – | – | – | CCN(CC)[C@@H]1c2cc3c(cc2[C@@H](c2cc(OC)c(O)c(OC)c2)[C@H]2C(=O)OC[C@@H]21)OCO3.Cl | – | > 100 | –
– | 0.16 | – | – | CCS[C@@H]1c2cc3c(cc2[C@@H](c2cc(OC)c(OC)c(OC)c2)[C@H]2C(=O)OC[C@@H]21)OCO3 | – | 0.32 | 2
– | 10 | – | – | CCN(CC)CCN[C@@H]1c2cc3c(cc2[C@@H](c2cc(OC)c(O)c(OC)c2)[C@H]2C(=O)OC[C@@H]21)OCO3 | – | 8 | 0.8
– | – | – | 3 | COc1cc([C@@H]2c3cc4c(cc3C(=O)[C@H]3COC(=O)[C@H]23)OCO4)cc(O)c1O | – | 9 | 3
